Measurements published in patent publication US20230095520A1, “PHARMACEUTICAL COMPOSITION FOR PREVENTING OR TREATING CANCER COMPRISING AZOLE DERIVATIVES OR PHARMACEUTICALLY ACCEPTABLE SALT THEREOF” (Yungjin Pharm. Co., Ltd., priority 2020, published 2023).

Experiments:
Assay in all cases: Cancer cell proliferation GI50 (CCK-8)
Assay type in all cases: cell-based
KG-1 = conditions: Homo sapiens, KG-1, acute myeloid leukemia, 72 hours
Description: (§1) In this example, in order to confirm the proliferation inhibitory effect on various cancer cells, Compound 121 was tested as follows.
(§2) The cells were cultured with a culture medium shown in Table 9 below at 37° C. in a humidified condition in the presence of 5% CO2. Each cell cultured in a 96-well cell culture plate was treated with the compound of the present invention and cultured for 72 hours.

CCRF-CEM = conditions: Homo sapiens, acute lymphocytic leukemia, 72 hours
Description: as §1, §2

HCC1937 = conditions: Homo sapiens, HCC1937, breast cancer, 72 hours
Description: as §1, §2

MOLM/DEC-5 = conditions: MOLM/DEC-5, acute myeloid leukemia, 72 hours
Description: as §1, §2

HCT116 = conditions: Homo sapiens, HCT-116, HCT116, large intestine cancer, 72 hours
Description: as §1, §2

A549 = conditions: Homo sapiens, A549, lung cancer, 72 hours
Description: as §1, §2

THP-1 = conditions: Homo sapiens, THP-1, acute myeloid leukemia, 72 hours
Description: as §1, §2

RPMI-8226 = conditions: Homo sapiens, RPMI-8226, multiple myeloma, 72 hours
Description: as §1, §2

OVCAR-3 = conditions: Homo sapiens, OVCAR-3, ovarian cancer, 72 hours
Description: as §1, §2

TOM-1 = conditions: TOM-1, B cell acute lymphocytic leukemia, 72 hours
Description: as §1, §2

THP/DEC-2 = conditions: THP/DEC-2, acute myeloid leukemia, 72 hours
Description: as §1, §2

OCI-AML2 = conditions: Homo sapiens, OCI-AML2, acute myeloid leukemia, 72 hours
Description: as §1, §2

NB4 = conditions: Homo sapiens, NB-4, NB4, acute promyelocytic leukemia, 72 hours
Description: as §1, §2

MOLM-14 = conditions: Homo sapiens, MOLM-14, acute myeloid leukemia, 72 hours
Description: as §1, §2

SR = conditions: Homo sapiens, immunoblastic large cell lymphoma, 72 hours
Description: as §1, §2

K562 = conditions: Homo sapiens, K562, chronic myeloid leukemia (CML), 72 hours
Description: as §1, §2

NALM-20 = conditions: NALM-20, B cell acute lymphocytic leukemia, 72 hours
Description: as §1, §2

KASUMI-2 = conditions: KASUMI-2, B cell acute lymphocytic leukemia, 72 hours
Description: as §1, §2

U937 = conditions: Homo sapiens, U-937, U937, acute myeloid leukemia, 72 hours
Description: as §1, §2

MOLM/CYT = conditions: acute myeloid leukemia, 72 hours
Description: as §1, §2

JURKAT = conditions: Homo sapiens, T cell acute lymphocytic leukemia, 72 hours
Description: as §1, §2

SKOV-3 = conditions: Homo sapiens, SK-OV-3, SKOV-3, ovarian cancer, 72 hours
Description: as §1, §2

SKM-1 = conditions: Homo sapiens, SKM-1, acute myeloid leukemia, 72 hours
Description: as §1, §2

KU-812 = conditions: Homo sapiens, KU812, KU-812, chronic myeloid leukemia, 72 hours
Description: as §1, §2

MEG-01 = conditions: Homo sapiens, MEG-01, chronic myeloid leukemia, 72 hours
Description: as §1, §2

BDCM = conditions: acute myeloid leukemia, 72 hours
Description: as §1, §2

T47D = conditions: Homo sapiens, breast cancer, 72 hours
Description: as §1, §2

DAUDI = conditions: Homo sapiens, Burkitt lymphoma, 72 hours
Description: as §1, §2

HCC70 = conditions: Homo sapiens, HCC70, breast cancer, 72 hours
Description: as §1, §2

HeLa = conditions: Homo sapiens, cervical cancer, 72 hours
Description: as §1, §2

BxPC-3 = conditions: Homo sapiens, BxPC-3, pancreatic cancer, 72 hours
Description: as §1, §2

MOLM/AZA-1 = conditions: MOLM/AZA-1, acute myeloid leukemia, 72 hours
Description: as §1, §2

MV-4-11 = conditions: Homo sapiens, MV4-11, MV-4-11, acute myeloid leukemia, 72 hours
Description: as §1, §2

SK-BR-3 = conditions: Homo sapiens, SK-BR-3, breast cancer, 72 hours
Description: as §1, §2

MOLM-13 = conditions: Homo sapiens, MOLM-13, acute myeloid leukemia (AML), 72 hours
Description: as §1, §2

LNCaP = conditions: Homo sapiens, prostate cancer, 72 hours
Description: as §1, §2

RCH-ACV = conditions: B cell acute lymphocytic leukemia, 72 hours
Description: as §1, §2

GI50 (KG-1): 29 nM | GI50 (CCRF-CEM): 15.6 nM | GI50 (HCC1937): 14.6 nM | GI50 (MOLM/DEC-5): 14.9 nM | GI50 (HCT116): 4 nM | GI50 (A549): 8.6 nM | GI50 (THP-1): 1.95 nM | GI50 (RPMI-8226): 16.4 nM | GI50 (OVCAR-3): 4.8 nM | GI50 (TOM-1): 4.36 nM | GI50 (THP/DEC-2): 3.6 nM | GI50 (OCI-AML2): 7.74 nM | GI50 (NB4): 12.9 nM | GI50 (MOLM-14): 2.77 nM | GI50 (SR): 5.83 nM | GI50 (K562): 18.9 nM | GI50 (NALM-20): 18.6 nM | GI50 (KASUMI-2): 6.26 nM | GI50 (U937): 2.43 nM | GI50 (MOLM/CYT): 0.94 nM | GI50 (JURKAT): 17.5 nM | GI50 (SKOV-3): 9.6 nM | GI50 (SKM-1): 25 nM | GI50 (KU-812): 3.64 nM | GI50 (MEG-01): 4 nM | GI50 (BDCM): 2.68 nM | GI50 (T47D): 19.3 nM | GI50 (DAUDI): 9.15 nM | GI50 (HeLa): 10.8 nM | GI50 (BxPC-3): 6.7 nM | GI50 (MOLM/AZA-1): 13.2 nM | GI50 (MV-4-11): 11.8 nM | GI50 (SK-BR-3): 10.6 nM | GI50 (MOLM-13): 19 nM | GI50 (LNCaP): 8 nM | GI50 (RCH-ACV): 4.1 nM
Structure (SMILES): CCc1cnc(NC(=O)[C@@H](C)c2cccc(-c3cnc(NC(=O)/C=C/CN(C)C)c(C#N)c3)c2)s1 [Compound 121, (S,E)-N-(3-cyano-5-(3-(1-((5-ethylthiazol-2-yl)amino)-1-oxopropan-2-yl)phenyl)pyridin-2-yl)-4-(dimethylamino)but-2-enamide]
GI50 (HCC70): 11.2 nM
